Read-outs that look alike come from different tables or passages of the source.
Experiments:
[1] = biological target: human norepinephrine transporter (NET) (Homo sapiens (Human), UniProt P23975); assay: Binding assay to human norepinephrine transporter (NET) ([3H]-Nisoxetin); details: Table 2, dual compounds; [3H]-Nisoxetin binding
Procedure: Binding Assay to Human Norepinephrine Transporter (NET).
Human norepinephrine transporter (NET) enriched membranes (5 μg) were incubated with 5 nM of radiolabeled [3H]-Nisoxetin in assay buffer containing 50 mM Tris-HCl, 120 mM NaCl, 5 mM KCl, pH 7.4.
NSB (non specific binding) was measured by adding 1 μM. After 60 min incubation at 4° C., binding reaction was terminated by filtering through Multiscreen GF/C (Millipore) presoaked in 0.5% polyethyleneimine in Vacuum Manifold Station, followed by 3 washes with ice-cold filtration buffer containing 50 mM Tris-HCl, 0.9% NaCl, pH 7.4.
Filter plates were dried at 60° C. for 1 hour and 30 μl of scintillation cocktail were added to each well before radioactivity reading.

[2] = biological target: human α2δ-1 subunit of Cav2.2 calcium channel (Homo sapiens (Human), UniProt P54289); assay: Binding assay to human α2δ-1 subunit of Cav2.2 calcium channel ([3H]-Gabapentin); details: read-out: Ki (nM) α2δ-1
How it was run: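 [3H]-gabapentin binding, 60 min at 27° C; nonspecific binding defined with 10 μM pregabalin. Terminated by filtration on PEI-presoaked GF/C filters, ice-cold 50 mM Tris-HCl pH 7.4 washes, then scintillation counting.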

[3] = Table 2, dual compounds, [3H]-Gabapentin binding
[4] = binding to α2δ-1, [3H]-Gabapentin

Sequence of human α2δ-1 subunit of Cav2.2 calcium channel (P54289 25-1103): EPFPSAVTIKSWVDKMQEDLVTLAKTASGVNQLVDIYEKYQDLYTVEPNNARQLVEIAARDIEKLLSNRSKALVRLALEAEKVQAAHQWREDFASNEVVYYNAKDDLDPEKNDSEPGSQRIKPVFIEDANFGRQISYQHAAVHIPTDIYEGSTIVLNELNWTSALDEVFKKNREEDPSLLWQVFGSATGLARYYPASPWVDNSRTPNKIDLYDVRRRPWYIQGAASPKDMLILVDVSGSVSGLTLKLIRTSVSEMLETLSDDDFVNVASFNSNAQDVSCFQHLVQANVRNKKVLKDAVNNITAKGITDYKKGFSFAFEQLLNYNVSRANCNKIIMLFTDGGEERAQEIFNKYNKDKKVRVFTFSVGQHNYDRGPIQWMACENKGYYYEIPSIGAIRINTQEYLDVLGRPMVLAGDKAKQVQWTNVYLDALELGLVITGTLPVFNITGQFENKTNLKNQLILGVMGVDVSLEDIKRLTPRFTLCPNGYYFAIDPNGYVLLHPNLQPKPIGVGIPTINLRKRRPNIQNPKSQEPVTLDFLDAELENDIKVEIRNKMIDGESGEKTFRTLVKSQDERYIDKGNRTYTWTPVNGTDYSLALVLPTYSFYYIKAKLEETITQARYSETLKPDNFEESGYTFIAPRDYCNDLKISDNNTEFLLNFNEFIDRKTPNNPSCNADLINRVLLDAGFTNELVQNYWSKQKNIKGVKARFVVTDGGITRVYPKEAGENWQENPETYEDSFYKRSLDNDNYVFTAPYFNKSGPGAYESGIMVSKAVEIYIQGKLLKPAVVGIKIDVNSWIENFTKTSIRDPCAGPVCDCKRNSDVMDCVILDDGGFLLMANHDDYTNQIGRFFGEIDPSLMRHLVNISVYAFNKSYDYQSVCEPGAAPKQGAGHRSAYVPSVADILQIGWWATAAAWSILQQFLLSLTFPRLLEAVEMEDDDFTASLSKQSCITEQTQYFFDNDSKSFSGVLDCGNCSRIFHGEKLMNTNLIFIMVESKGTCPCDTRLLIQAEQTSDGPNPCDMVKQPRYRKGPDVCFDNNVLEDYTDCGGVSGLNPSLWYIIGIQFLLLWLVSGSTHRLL
Sequence of human norepinephrine transporter (NET) (P23975 whole entry): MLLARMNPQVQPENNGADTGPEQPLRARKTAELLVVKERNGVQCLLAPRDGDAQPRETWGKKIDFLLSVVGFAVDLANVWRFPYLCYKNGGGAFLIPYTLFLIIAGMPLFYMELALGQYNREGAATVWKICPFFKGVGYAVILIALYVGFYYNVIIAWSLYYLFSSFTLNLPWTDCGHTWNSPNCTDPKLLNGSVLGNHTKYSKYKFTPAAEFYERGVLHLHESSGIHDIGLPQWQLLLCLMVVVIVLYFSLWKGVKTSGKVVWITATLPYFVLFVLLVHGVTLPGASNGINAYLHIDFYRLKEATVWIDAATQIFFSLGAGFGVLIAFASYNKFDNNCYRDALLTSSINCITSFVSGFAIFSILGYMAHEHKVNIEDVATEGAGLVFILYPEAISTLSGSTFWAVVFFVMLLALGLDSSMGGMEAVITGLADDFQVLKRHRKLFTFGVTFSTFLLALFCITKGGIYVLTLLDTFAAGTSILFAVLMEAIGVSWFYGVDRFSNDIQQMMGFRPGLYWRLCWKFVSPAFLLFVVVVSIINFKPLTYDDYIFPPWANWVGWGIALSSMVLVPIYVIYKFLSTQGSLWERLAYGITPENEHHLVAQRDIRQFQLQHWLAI

| SMILES | Ki [1] | Ki [2, 3] | Ki [2, 4] |
| --- | --- | --- | --- |
| CCNc1ncc2c(n1)N(C)CCN(c1cccc(-c3nnc(CN4CCC(c5cccc(O)c5)(N(C)C)CC4)o3)c1)C2=O [Example 442, 6-(3-(5-((4-(dimethylamino)-4-(3-hydroxyphenyl)piperidin-1-yl)methyl)-1,3,4-oxadiazol-2-yl)phenyl)-2-(ethylamino)-9-methyl-6,7,8,9-tetrahydro-5H-pyrimido[4,5-e][1,4]diazepin-5-one] | < 100 nM | < 100 nM | < 100 nM |
| CCNc1ncc2c(n1)N(C)CCN(c1cccc(-n3cc(CNCC4CC4)nn3)c1)C2=O [Example 285, 6-(3-(4-(((cyclopropylmethyl)amino)methyl)-1H-1,2,3-triazol-1-yl)phenyl)-2-(ethylamino)-9-methyl-6,7,8,9-tetrahydro-5H-pyrimido[4,5-e][1,4]diazepin-5-one] | 100 to 500 nM | 100 to 500 nM | 100 to 500 nM |
| CNCC[C@H](Oc1ccc(CN2CCN(C)c3cc(N)ncc3C2=O)cc1)c1cccs1 [Example 305, (S)-8-amino-1-methyl-4-(4-(3-(methylamino)-1-(thiophen-2-yl)propoxy)benzyl)-1,2,3,4-tetrahydro-5H-pyrido[4,3-e][1,4]diazepin-5-one] | 100 to 500 nM | 100 to 500 nM | 100 to 500 nM |
| CCNc1ncc2c(n1)N(C)CCN(c1cccc(-n3cc(CN(C)CCc4ccccc4)nn3)c1)C2=O [Example 244, 2-(ethylamino)-9-methyl-6-(3-(4-((methyl(phenethyl)amino)methyl)-1H-1,2,3-triazol-1-yl)phenyl)-6,7,8,9-tetrahydro-5H-pyrimido[4,5-e][1,4]diazepin-5-one] | < 100 nM | 500 to 3000 nM | 500 to 3000 nM |
| CCNc1ncc2c(n1)N(C)CCN(c1cccc(COC3(c4ccccc4)CCNCC3)c1)C2=O [Example 176, 2-(ethylamino)-9-methyl-6-(3-(((4-phenylpiperidin-4-yl)oxy)methyl)phenyl)-6,7,8,9-tetrahydro-5H-pyrimido[4,5-e][1,4]diazepin-5-one] | > 1000 nM | 500 to 3000 nM | 500 to 3000 nM |
| CNCCC(Oc1ccc(CN2CCN(C)c3ccncc3C2=O)cc1)c1cccs1 (stereo not drawn) [Example 381, 1-methyl-4-(4-(3-(methylamino)-1-(thiophen-2-yl)propoxy)benzyl)-1,2,3,4-tetrahydro-5H-pyrido[4,3-e][1,4]diazepin-5-one] | 100 to 500 nM | 100 to 500 nM | 100 to 500 nM |
| CNCC[C@H](Oc1cccc(N2CCN(C)c3cc(N)ncc3C2=O)c1)c1cccs1 [Example 304, (S)-8-amino-1-methyl-4-(3-(3-(methylamino)-1-(thiophen-2-yl)propoxy)phenyl)-1,2,3,4-tetrahydro-5H-pyrido[4,3-e][1,4]diazepin-5-one] | 100 to 500 nM | 100 to 500 nM | 100 to 500 nM |
| CCNc1ncc2c(n1)N(C)CCN(Cc1ccc(COC(CNC)c3ccccc3)cc1)C2=O (stereo not drawn) [Example 413, 2-(ethylamino)-9-methyl-6-(4-((2-(methylamino)-1-phenylethoxy)methyl)benzyl)-6,7,8,9-tetrahydro-5H-pyrimido[4,5-e][1,4]diazepin-5-one] | 100 to 500 nM | 500 to 3000 nM | 500 to 3000 nM |
| CCNc1ncc2c(n1)N(C)CCN(c1cccc(C3CCN(CCc4ccccc4)CC3)c1)C2=O [Example 261, 2-(ethylamino)-9-methyl-6-(3-(1-phenethylpiperidin-4-yl)phenyl)-6,7,8,9-tetrahydro-5H-pyrimido[4,5-e][1,4]diazepin-5-one] | 100 to 500 nM | 100 to 500 nM | 100 to 500 nM |
| CCNc1ncc2c(n1)N(C)CCN(c1ccc(OC(CNC)c3ccccc3)cc1)C2=O (stereo not drawn) [Example 159, 2-(ethylamino)-9-methyl-6-(4-(2-(methylamino)-1-phenylethoxy)phenyl)-6,7,8,9-tetrahydro-5H-pyrimido[4,5-e][1,4]diazepin-5-one] | > 1000 nM | > 3000 nM | > 3000 nM |
| CCNc1ncc2c(n1)N(C)CCN(c1cccc(-n3cc(CN(C)Cc4ccc(F)cc4)nn3)c1)C2=O [Example 287, 2-(ethylamino)-6-(3-(4-(((4-fluorobenzyl)(methyl)amino)methyl)-1H-1,2,3-triazol-1-yl)phenyl)-9-methyl-6,7,8,9-tetrahydro-5H-pyrimido[4,5-e][1,4]diazepin-5-one] | < 100 nM | 500 to 3000 nM | 500 to 3000 nM |

The remaining lines, values ahead:

| Ki [1] | Ki [2, 3] | Ki [2, 4] | SMILES |
| --- | --- | --- | --- |
| 100 to 500 nM | > 3000 nM | > 3000 nM | CNCCC(OCc1cccc(CN2CCN(C)c3nc(SC)ncc3C2=O)c1)c1ccccc1 (stereo not drawn) [Example 367, 9-methyl-6-(3-((3-(methylamino)-1-phenylpropoxy)methyl)benzyl)-2-(methylthio)-6,7,8,9-tetrahydro-5H-pyrimido[4,5-e][1,4]diazepin-5-one] |
| 100 to 500 nM | > 3000 nM | > 3000 nM | CNCC[C@H](OCc1cccc(N2CCN(C)c3nc(SC)ncc3C2=O)c1)c1ccccc1 [Example 165, (S)-9-methyl-6-(3-((3-(methylamino)-1-phenylpropoxy)methyl)phenyl)-2-(methylthio)-6,7,8,9-tetrahydro-5H-pyrimido[4,5-e][1,4]diazepin-5-one] |
| < 100 nM | > 3000 nM | > 3000 nM | CNCC[C@H](Oc1cccc(N2CCN(C)c3nc(SC)ncc3C2=O)c1)c1ccccc1 [Example 153, (S)-9-methyl-6-(3-(3-(methylamino)-1-phenylpropoxy)phenyl)-2-(methylthio)-6,7,8,9-tetrahydro-5H-pyrimido[4,5-e][1,4]diazepin-5-one] |
| < 100 nM | > 3000 nM | > 3000 nM | CNCCC(OCc1ccc(N2CCN(C)c3nc(SC)ncc3C2=O)cc1)c1ccccc1 (stereo not drawn) [Example 315, 9-methyl-6-(4-((3-(methylamino)-1-phenylpropoxy)methyl)phenyl)-2-(methylthio)-6,7,8,9-tetrahydro-5H-pyrimido[4,5-e][1,4]diazepin-5-one] |
| 500 to 1000 nM | > 3000 nM | > 3000 nM | CNCC(OCc1cccc(N2CCN(C)c3nc(SC)ncc3C2=O)c1)c1ccccc1 (stereo not drawn) [Example 226, 9-methyl-6-(3-((2-(methylamino)-1-phenylethoxy)methyl)phenyl)-2-(methylthio)-6,7,8,9-tetrahydro-5H-pyrimido[4,5-e][1,4]diazepin-5-one] |
| 100 to 500 nM | 100 to 500 nM | 500 to 3000 nM | CNCC[C@@H](OCc1cccc(N2CCN(C)c3nc(C)ncc3C2=O)c1)c1ccccc1 [Example 206, (R)-2,9-dimethyl-6-(3-((3-(methylamino)-1-phenylpropoxy)methyl)phenyl)-6,7,8,9-tetrahydro-5H-pyrimido[4,5-e][1,4]diazepin-5-one] |
| 500 to 1000 nM | > 3000 nM | > 3000 nM | CNCCC(Oc1cccc(CN2CCN(C)c3nc(SC)ncc3C2=O)c1)c1ccccc1 (stereo not drawn) [Example 366, 9-methyl-6-(3-(3-(methylamino)-1-phenylpropoxy)benzyl)-2-(methylthio)-6,7,8,9-tetrahydro-5H-pyrimido[4,5-e][1,4]diazepin-5-one] |
| 500 to 1000 nM | > 3000 nM | > 3000 nM | CNCCC(OCc1ccc(CN2CCN(C)c3nc(C)ncc3C2=O)cc1)c1ccccc1 (stereo not drawn) [Example 422, 2,9-dimethyl-6-(4-((3-(methylamino)-1-phenylpropoxy)methyl)benzyl)-6,7,8,9-tetrahydro-5H-pyrimido[4,5-e][1,4]diazepin-5-one] |
| > 1000 nM | 500 to 3000 nM | 500 to 3000 nM | CCNc1ncc2c(n1)N(C)CCN(c1cccc(OC(CCNC)c3ccccn3)c1)C2=O (stereo not drawn) [Example 193, 2-(ethylamino)-9-methyl-6-(3-(3-(methylamino)-1-(pyridin-2-yl)propoxy)phenyl)-6,7,8,9-tetrahydro-5H-pyrimido[4,5-e][1,4]diazepin-5-one] |
| < 100 nM | 500 to 3000 nM | 500 to 3000 nM | CNCCC(Oc1ccc(CN2CCN(C)c3nc(SC)ncc3C2=O)cc1)c1ccccc1 (stereo not drawn) [Example 369, 9-methyl-6-(4-(3-(methylamino)-1-phenylpropoxy)benzyl)-2-(methylthio)-6,7,8,9-tetrahydro-5H-pyrimido[4,5-e][1,4]diazepin-5-one] |
| 100 to 500 nM | 100 to 500 nM | 100 to 500 nM | CNCC[C@@H](OCc1cccc(N2CCN(C)c3nc(NCc4ccccn4)ncc3C2=O)c1)c1ccccc1 [Example 343, (R)-9-methyl-6-(3-((3-(methylamino)-1-phenylpropoxy)methyl)phenyl)-2-((pyridin-2-ylmethyl)amino)-6,7,8,9-tetrahydro-5H-pyrimido[4,5-e][1,4]diazepin-5-one] |
| 100 to 500 nM | 500 to 3000 nM | 500 to 3000 nM | CCc1ncc2c(n1)N(C)CCN(c1cccc(CO[C@H](CCNC)c3ccccc3)c1)C2=O [Example 356, (R)-2-ethyl-9-methyl-6-(3-((3-(methylamino)-1-phenylpropoxy)methyl)phenyl)-6,7,8,9-tetrahydro-5H-pyrimido[4,5-e][1,4]diazepin-5-one] |
| 500 to 1000 nM | > 3000 nM | > 3000 nM | CNCCC(Oc1ccc(N2CCN(C)c3nc(SC)ncc3C2=O)cc1)c1ccccc1 (stereo not drawn) [Example 316, 9-methyl-6-(4-(3-(methylamino)-1-phenylpropoxy)phenyl)-2-(methylthio)-6,7,8,9-tetrahydro-5H-pyrimido[4,5-e][1,4]diazepin-5-one] |

Reference: patent publication US10590140B2, “Tetrahydropyrimidodiazepine and dihydropyridodiazepine compounds for treating pain and pain related conditions” (ESTEVE PHARMACEUTICALS, S.A., priority 2016, dated 2020)
